In patent EP1074267B1, “Induction of antigen-specific T cells by interferon” (Dainippon Sumitomo Pharma Co., Ltd., priority 1999, dated 2001):
Where no end group is shown, it is not given here.

Tested on: EL-4 cells labeled with 51Cr and pulsed with the peptide Flu366-374
Details: administered alone using the osmotic pump (100 µg peptide or 10^5 U IFN-α, subcutaneous, 3-day release); spleen 7 days after administration, 5 days re-stimulation; Fig. 1(A)

ASNESMETM [peptide, Ala-Ser-Asn-Glu-Ser-Met-Glu-Thr-Met]
peptide-specific CTL induction (cytotoxic activity for peptide-pulsed EL-4 cells): no peptide-specific CTL was induced
